We go through six compounds from patent US5036008A, “Antitumor antibiotic BU-3285T” (Bristol-Myers Company, priority 1990, dated 1991).

Structures are written as SMILES. Values after ≈ are worked out from the molar mass of the structure shown.

The subject of one experiment is Piricularia oryzae D91. As to the kind of experiment: microbe, parasite or virus in culture. In kind it is cell-based. The settings on record: 40 h, pH 7.
A further experiment relates to A. fumigatus IAM2034. As to the kind of experiment: microbe, parasite or virus in culture. The settings on record: Aspergillus fumigatus, IAM2034, 40 h, pH 7.
Experiment [1] relates to Sporothrix schenckii IF08158. As to the kind of experiment: microbe, parasite or virus in culture. The settings on record: IF08158, 40 h, pH 7.
Experimental: (§4) In vitro antifungal activity was determined against various fungi by the serial agar dilution method. Sabouraud dextrose agar (pH 7.0) was used for the experiment. The inoculum size was adjusted to 10^6 CFU/ml. After incubation at 28° C. for 40 hours, the minimum inhibitory concentration (MIC) was examined.
The test system of the next experiment is Candida albicans IAM4888. Description: In vitro antifungal activity, serial agar dilution. The settings on record: IAM4888, 40 h, pH 7. A general note: In agar dilution, organisms are placed on agar that contains the substance at set levels.
In a further experiment the test system is C. albicans A9540. Description: In vitro antifungal activity, serial agar dilution. The settings on record: Candida albicans, A9540, 40 h, pH 7.
For experiment [2], the system named is Cryptococcus neoformans D49. As to the kind of experiment: In vitro antifungal activity, serial agar dilution. The settings on record: D49, 40 h, pH 7.
Experimental: as §4
For a further experiment, the system named is C. neoformans IAM4514. Description: In vitro antifungal activity, serial agar dilution. The settings on record: Cryptococcus neoformans, IAM4514, 40 h, pH 7.
Experiment [3] deals with Aspergillus fumigatus IAM2530. As to the kind of experiment: In vitro antifungal activity, serial agar dilution. The settings on record: IAM2530, 40 h, pH 7.
Experimental: as §4
In the next experiment the test system is A. flavus FA21436. As to the kind of experiment: In vitro antifungal activity, serial agar dilution. The settings on record: Aspergillus flavus, FA21436, 40 h, pH 7.
Experiment [4] deals with Fusarium moniliforme A2284. Description: In vitro antifungal activity, serial agar dilution. The settings on record: Fusarium verticillioides, A2284, 40 h, pH 7.
Experimental: as §4
For experiment [5], the system named is Trichophyton mentagrophytes D155. As to the kind of experiment: In vitro antifungal activity, serial agar dilution. The settings on record: D155, 40 h, pH 7.
Experimental: as §4
The next experiment deals with T. mentagrophytes #4329. As to the kind of experiment: In vitro antifungal activity, serial agar dilution. The settings on record: Trichophyton mentagrophytes, 40 h, pH 7.
Experiment [6] concerns Blastomyces dermatidis D40. Description: In vitro antifungal activity, serial agar dilution. The settings on record: D40, 40 h, pH 7.
Experimental: as §4
For experiment [7], the system named is Petriellidium boydii IF08078. As to the kind of experiment: In vitro antifungal activity, serial agar dilution. The settings on record: Scedosporium boydii, IF08078, 40 h, pH 7.
Experimental: as §4
For the next experiment, the system named is Mucor spinosus IF05317. Description: In vitro antifungal activity, serial agar dilution. The settings on record: IF05317, 40 h, pH 7.
The test system of the next experiment is B16 melanoma. The settings on record: reported; cited from earlier work.
A further experiment concerns fungi. The settings on record: reported; cited from earlier work.
Experiment [8] has as its system B16-F10 (murine melanoma) cells. As to the kind of experiment: In vitro cytotoxicity (Table 14). In kind it is cell-based. The settings on record: Mus musculus, B16-F10, 72 h.
Experimental: (§5) B16-F10 (murine melanoma), HCT-116 (human colon carcinoma), A549 (human lung carcinoma) and A549/VP29 (an etoposide-resistant subline of A549) were grown in Eagle's MEM (Nissui) supplemented with FCS (fetal calf serum, 10%) and non-essential amino acids (B16-F10), or in McCoy's 5A medium (Gibco) with FCS (10%), essential and non-essential amino acids, vitamins and antibiotics (HCT-116 and both of A549) at 37° C. under a humidified atmosphere in a 5% CO2 incubator. Exponentially growing B16-F10, HCT-116 and A549 cells were harvested, counted and suspended in the culture medium at 1.5×10^4, 3×10^4 and 3×10^4 cells/ml, respectively. After planting 180 μl of cell suspension into wells of a 96-well microtiter plate on day 0, the test materials (20 μl) were added on day 1 and the plates were incubated for 72 hours. The cytotoxic activity was colorimetrically determined at 540 nm after staining viable cells with neutral red solution.
The subject of experiment [9] is HCT-116 (human colon carcinoma) cells. Description: In vitro cytotoxicity (Table 14). The class given is cell-based. The settings on record: HCT-116, 72 h.
Experimental: as §5
Experiment [10] has as its system B16-F10 (murine melanoma) cells. Description: In vitro cytotoxicity (Table 6). The settings on record: Mus musculus; B16-F10, 72 hrs, neutral red. In kind it is cell-based. As to the method:
(§1) BU-3285T was tested for in vitro cytotoxicity against several murine and human tumor cell lines and for in vivo antitumor activity in mice. Mitomycin C was used as a reference compound in both in vitro and in vivo experiments. B16-F10 (murine melanoma) and Moser (human colorectal carcinoma) cells were grown to the logarithmic phase in an enriched Eagle minimum essential medium supplemented with fetal calf serum (FCS, 10%) and kanamycin (60 μg/ml); HCT-116 (human colon carcinoma) cells were in McCoy's 5A medium supplemented with FCS (10%), penicillin (100 U/ml) and streptomycin (100 μg/ml); and P388 (murine lymphocytic leukemia) cells and its vincristine-resistant subline (P388/VCR) were in RPMI 1640 medium supplemented with FCS (10%), penicillin (100 U/ml) and streptomycin (100 μg/ml).
(§2) B16-F10, Moser, HCT-116 and P388 cells were harvested and implanted into wells of a 96-well (for B16-F10, Moser and HCT-116 cells) or a 24-well (for P388 cells) tissue culture plate with test materials at the inoculum sizes of 3×10^4, 6 ×10^4, 6×10^4 and 2×10^4 cells/ml, respectively. They were incubated at 37° C. in a humidified atmosphere of 5% CO2 and 95% air for 72 hrs. […] For P388 cells, the number of viable cells was determined by a Coulter counter.

Experiment [11] deals with HCT-116 (human colon carcinoma) cells. Description: In vitro cytotoxicity (Table 6). The class given is cell-based. The settings on record: HCT-116, 72 hrs, neutral red. As to the method:
as §1, §2

Experiment [12] relates to Moser (human colorectal carcinoma) cells. As to the kind of experiment: In vitro cytotoxicity (Table 6). The settings on record: Homo sapiens, 72 h. The method, then: as §1, §2
Experiment [13] deals with DNA biosynthesis in L1210 leukemia cells. As to the kind of experiment: Inhibition of macromolecule biosynthesis, DNA (Table 7). The class given is cell-based, murine. The settings on record: Mus musculus, L1210; 3H-thymidine, ^14 C-uridine or 3H-leucine precursor; 15 min + 60 min, 37° C.; read-out: IC50, DNA synthesis. The method, then:
(§3) Inhibitory effects of BU-3285T on macromolecule biosynthesis (DNA, RNA and protein) were determined in cultured L1210 murine leukemia cells. The cells (5×10^5 cells/ml) were incubated with the compound at 37° C. for 15 minutes and then further incubated for 60 minutes after the addition of labelled precursor, ^3 H-thymidine, ^14 C-uridine or ^3 H-leucine into the cultured mixture. After washing with chilled 5% trichloroacetic acid solution, the radioactivity incorporated into the acid-insoluble fraction of the cells was determined by a liquid scintillation counter.

Experiment [14] deals with RNA biosynthesis in L1210 leukemia cells. Description: Inhibition of macromolecule biosynthesis, RNA (Table 7). In kind it is cell-based, murine. The settings on record: Mus musculus, labelled precursor, 15 min + 60 min, 37° C., read-out: IC50, RNA synthesis. As to the method: as §3
In experiment [15] the test system is protein biosynthesis in L1210 leukemia cells. As to the kind of experiment: Inhibition of macromolecule biosynthesis, protein (Table 7). The class given is cell-based, murine. The settings on record: Mus musculus, L1210; labelled precursor; 15 min + 60 min, 37° C.; read-out: IC50, protein synthesis. The method, then:
as §3

The test system of another experiment is P388 leukemia. Description: In vivo antitumor activity against P388 leukemia (Table 8). The settings on record: Q1D × 3.
For a further experiment, the system named is L1210 leukemia. As to the kind of experiment: In vivo antitumor activity against L1210 leukemia (Table 9). The settings on record: Q1D × 3.
The test system of experiment [16] is A549 (human lung carcinoma) cells. As to the kind of experiment: In vitro cytotoxicity (Table 14). The class given is cell-based. The settings on record: A549, 72 h.
Experimental: as §5
For experiment [17], the system named is A549/VP29 (etoposide-resistant subline of A549) cells. As to the kind of experiment: In vitro cytotoxicity (Table 14). The settings on record: A549/VP29, 72 hours, neutral red.
Experimental: After planting 180 μl of cell suspension into wells of a 96-well microtiter plate on day 0, the test materials (20 μl) were added on day 1 and the plates were incubated for 72 hours. The cytotoxic activity was colorimetrically determined at 540 nm after staining viable cells with neutral red solution.
Setting [18] is: 0.1 mg/kg/day ip, significant if T/C ≥ 125%.
[19] abbreviates: 0.3 mg/kg/day ip, *2 significant, T/C ≥ 125%.
The mark [20] stands for this setting: 1 mg/kg/day ip, *2 significant, T/C ≥ 125%.
The mark [21] stands for this setting: 3 mg/kg/day ip, *2 significant, T/C ≥ 125%.

Experimental for A. flavus FA21436: as §4
Experimental for A. fumigatus IAM2034: as §4
Experimental for C. albicans A9540: as §4
Experimental for C. neoformans IAM4514: as §4
Experimental for Candida albicans IAM4888: as §4
Experimental for Mucor spinosus IF05317: as §4
Experimental for T. mentagrophytes #4329: as §4

`CC(=O)N1CCN(c2ccc(OCC3COC(Cn4ccnc4)(c4ccc(Cl)cc4Cl)O3)cc2)CC1` (stereo not drawn) [Ketoconazole]: the MIC in the experiment on Piricularia oryzae D91 turned out to be 3.1 mg/L (≈ 5.83 µM); with A. fumigatus IAM2034, 6.3 mg/L (≈ 11.9 µM); in experiment [1] it was 6.3 mg/L (≈ 11.9 µM); against Candida albicans IAM4888, 50 mg/L (≈ 94.1 µM); in the experiment on C. albicans A9540, 50 mg/L (≈ 94.1 µM); in experiment [2], 0.4 mg/L (≈ 0.753 µM). For the same compound, the MIC is 0.4 mg/L (≈ 0.753 µM) in the experiment on C. neoformans IAM4514; 3.1 mg/L (≈ 5.83 µM) in experiment [3]; 0.4 mg/L (≈ 0.753 µM) with A. flavus FA21436; 6.3 mg/L (≈ 11.9 µM) in experiment [4]; 1.6 mg/L (≈ 3.01 µM) in experiment [5]; 1.6 mg/L (≈ 3.01 µM) with T. mentagrophytes #4329. The values for the MIC (in experiment [6]; in [7]; against Mucor spinosus IF05317) were 0.4 mg/L (≈ 0.753 µM), 1.6 mg/L (≈ 3.01 µM) and 100 mg/L (≈ 188 µM), respectively.
On to `C[C@@](O)(/C=C/[C@H]1CC=CC(=O)O1)[C@@H](C[C@@H](O)\C=C/C=C\C=C\CO)OP(=O)(O)O` [fostriecin], for which the “antitumor effect against B16 melanoma” value with B16 melanoma is recorded as “no antitumor effect against B16 melanoma”. Further, the antifungal activity entry in the experiment on fungi is recorded as “no antifungal activity”.
Usually IC50 stands for the point on the concentration scale where inhibition reaches its midpoint. For the compound `COc1cccc2c1C(=O)c1c(O)c3c(c(O)c1C2=O)C[C@@](O)(C(=O)CO)C[C@@H]3O[C@H]1C[C@H](N)[C@H](O)[C@H](C)O1` [Adriamycin, reference compound], the IC50 was found to be 0.03 mg/L (≈ 0.0552 µM) in experiment [8] and 0.3 mg/L (≈ 0.552 µM) in [9].
The term T/C denotes the result in the treated group divided by that in the control group, in per cent. Consider `CO[C@@]12[C@H](COC(N)=O)C3=C(C(=O)C(C)=C(N)C3=O)N1C[C@@H]1N[C@@H]12` [Mitomycin C, reference compound], for which the IC50 was 0.5 mg/L (≈ 1.5 µM) in experiment [10]; 0.8 mg/L (≈ 2.39 µM) in [11]; 1.2 mg/L (≈ 3.59 µM) in experiment [12]; 1.7 mg/L in [13]; greater than 100 mg/L in experiment [14]; greater than 100 mg/L in [15]. The “MST (median survival time)” value with P388 leukemia (0.1 mg/kg/day ip) stood at 11.5 days; in the experiment with P388 leukemia (0.3 mg/kg/day ip), 14.0 days; with P388 leukemia (1 mg/kg/day ip), 13.5 days; with P388 leukemia (3 mg/kg/day ip), 20.0 days; in the experiment on L1210 leukemia (0.1 mg/kg/day ip) it was 8.5 days; in the experiment with L1210 leukemia (0.3 mg/kg/day ip), 10.0 days. For the same compound, the “MST (median survival time)” value in the experiment on L1210 leukemia (1 mg/kg/day ip) came to 9.5 days; in the experiment with L1210 leukemia (3 mg/kg/day ip) it was 13.0 days. The T/C is 115% in the experiment with P388 leukemia (setting [18]); 140% in the experiment with P388 leukemia (setting [19]); 135% in the experiment on P388 leukemia (setting [20]); 200% in the experiment with P388 leukemia (setting [21]); 121% in the experiment with L1210 leukemia (setting [18]); 143% with L1210 leukemia (setting [19]). Moreover, the T/C in the experiment on L1210 leukemia (setting [20]) was found to be 136%; in the experiment on L1210 leukemia (setting [21]), 186%.
For the compound `C[C@@H]1[C@H](O)[C@@H](C)/C=C/C=C/C=C/C=C/C=C/C=C/C=C/[C@H](O[C@@H]2O[C@H](C)[C@@H](O)[C@H](N)[C@@H]2O)C[C@@H]2O[C@](O)(C[C@@H](O)C[C@@H](O)[C@H](O)CC[C@@H](O)C[C@@H](O)CC(=O)O[C@H]1C)C[C@H](O)[C@H]2C(=O)O` [Amphotericin B], the MIC in the experiment on Piricularia oryzae D91 was 12.5 mg/L (≈ 13.5 µM); against A. fumigatus IAM2034 it was 3.1 mg/L (≈ 3.35 µM); in experiment [1], greater than 100 mg/L; against Candida albicans IAM4888, 1.6 mg/L (≈ 1.73 µM); with C. albicans A9540, 1.6 mg/L (≈ 1.73 µM); in experiment [2] it was 0.8 mg/L (≈ 0.866 µM). The MIC with C. neoformans IAM4514 was found to be 0.8 mg/L (≈ 0.866 µM); in experiment [3], 3.1 mg/L (≈ 3.35 µM); in the experiment on A. flavus FA21436 it was 1.6 mg/L (≈ 1.73 µM); in experiment [4], 3.1 mg/L (≈ 3.35 µM); in experiment [5] it was 6.3 mg/L (≈ 6.82 µM); against T. mentagrophytes #4329, 6.3 mg/L (≈ 6.82 µM). In addition, the MIC was 12.5 mg/L (≈ 13.5 µM) in [6], greater than 100 mg/L in experiment [7] and 6.3 mg/L (≈ 6.82 µM) in the experiment with Mucor spinosus IF05317.
Take `COc1cc([C@@H]2c3cc4c(cc3[C@@H](O[C@@H]3O[C@@H]5CO[C@@H](C)O[C@H]5[C@H](O)[C@H]3O)[C@H]3COC(=O)[C@H]23)OCO4)cc(OC)c1O` [VP16, reference compound]: the IC50 in [8] was 0.21 mg/L (≈ 0.357 µM); in experiment [9], 5.3 mg/L (≈ 9 µM); in [16] it was 1.2 mg/L (≈ 2.04 µM); in experiment [17], 40 mg/L (≈ 68 µM).
